{"source": "patent US12532884B2", "about": "“Fungicidal compositions” (SYNGENTA CROP PROTECTION AG, priority 2020, dated 2026)", "key": {"[1]": {"system": "Phakopsora pachyrhizi", "assay": "Example D: preventative activity against Phakopsora pachyrhizi on soybean (whole plants sprayed, leaf disks inoculated)", "format": "in vivo", "excerpt": "(§1) Certain mixture compositions comprising a compound of formula (I) described above may show a synergistic effect. This occurs whenever the action of an active ingredient combination is greater than the sum of the actions of the individual components. The action to be expected E for a given active ingredient combination obeys the so-called COLBY formula and can be calculated as follows (COLBY, S. R. “Calculating synergistic and antagonistic responses of herbicide combination”. Weeds, Vol. 15, pages 20-22; 1967): • ppm=milligrams of active ingredient (=a.i.) per liter of spray mixture • X=% action by active ingredient A) using p ppm of active ingredient • Y=% action by active ingredient B) using q ppm of active ingredient.\n(§2) According to COLBY, the expected (additive) action of active ingredients A)+B) using p+q ppm of active ingredient is:\n(§3) If the action actually observed (O) is greater than the expected action (E), then the action of the combination is super-additive, i.e. there is a synergistic effect. In mathematical terms, synergism corresponds to a positive value for the difference of (O-E). In the case of purely complementary addition of activities (expected activity), said difference (O-E) is zero. A negative value of said difference (O-E) signals a loss of activity compared to the expected activity.\nWhole soybean plants are treated with the recited active ingredients 4 weeks after planting. 1 day after spraying leaf disks are cut from the first trifoliate leaf. Five repetitions at each rate are conducted. The leaf disks are inoculated with Phakopsora pachyrhizi (Asian soybean rust) one day after treatment. Evaluation of the leaf disks is conducted 11 to 14 days after inoculation and the activity is derived from the relation of the treated vs untreated, infested check. (100=no disease, no damage to the leaf, 0=high infestation, leaf damaged heavily). The rates of the active ingredients used are given in the tables as g active ingredient (a.i.)/ha."}, "[2]": {"system": "Mycosphaerella arachidis syn. Cercospora arachidicola", "assay": "Example C1: mixtures against Mycosphaerella arachidis syn. Cercospora arachidicola (brown leaf spot), liquid culture", "format": "cell-based", "conditions": "Mycosphaerella arachidis, single component, 100-0 scale (100=no disease growth)", "excerpt": "as §1, §2, §3\n(§4) Mycelia fragments or conidia suspensions of a fungus prepared either freshly from liquid cultures of the fungus or from cryogenic storage, are directly mixed into nutrient broth. DMSO solutions of the test compound (max. 10 mg/mL) are diluted with 0.025% Tween20 by a factor of 50 and 10 μl of this solution is pipetted into a microtiter plate (96-well format). The nutrient broth containing the fungal spores/mycelia fragments is then added to give an end concentration of the tested compound. The test plates are incubated in the dark at 24° C. and 96% relative humidity. The inhibition of fungal growth is determined photometrically after 2 to 7 days, depending on the pathosystem, and percent antifungal activity relative to the untreated check is calculated.\n(§5) Conidia of the fungus from cryogenic storage were directly mixed into nutrient broth (PDB potato dextrose broth). A DMSO solution of the test compounds was placed into a microtiter plate (96-well format) and the nutrient broth containing the fungal spores was added to it.\nThe following mixture compositions at the reported concentration (in ppm) in tables C1-3 and C1-4 gave the following disease control in this test Mycosphaerella arachidis syn. Cercospora arachidicola (Brown leaf spot of peanut). Fungicidal activity was evaluated on a 100-0 scale (100=no disease growth; 0=well completely covered by mycelium)."}, "[3]": {"system": "Septoria glycines", "assay": "Example C3: mixtures against Septoria glycines (brown spot), liquid culture", "format": "cell-based", "conditions": "Septoria glycines, single component", "excerpt": "This occurs whenever the action of an active ingredient combination is greater than the sum of the actions of the individual components. The action to be expected E for a given active ingredient combination obeys the so-called COLBY formula and can be calculated as follows (COLBY, S. R. “Calculating synergistic and antagonistic responses of herbicide combination”. Weeds, Vol. 15, pages 20-22; 1967): • ppm=milligrams of active ingredient (=a.i.) per liter of spray mixture • X=% action by active ingredient A) using p ppm of active ingredient • Y=% action by active ingredient B) using q ppm of active ingredient.\nas §2, §3\nas §4, with “The nutrient broth containing the fungal spores/mycelia fragments is then added to give an end concentration of the tested compound.” left out\nas §5, with “fungus harvested” for “fungus”, “a fresh culture grown on artificial media,” for “cryogenic storage”\nFungicidal activity was evaluated on a 100-0 scale (100=no disease growth; 0=well completely covered by mycelium)."}, "[4]": {"system": "Puccinia recondita (Brown rust)", "assay": "Example B: comparative biological activity against Puccinia recondita (brown rust), curative, wheat leaf segments", "format": "in vivo", "conditions": "8 dpi", "protocol": "Method; Wheat leaf segments are placed on agar in multiwell plates (24-well format). The leaf segments are inoculated with a spore suspension of the fungus and sprayed with test solutions 1 day after inoculation. After appropriate incubation the activity of a compound is assessed 8 dpi (days after inoculation) as curative fungicidal activity.\nThe data are presented as the percentage of disease control of each compound for the biological tests and testing rates described below in table B1."}, "[5]": {"system": "Septoria tritici", "assay": "Example C2: mixtures against Septoria tritici (leaf blotch), liquid culture", "format": "cell-based", "conditions": "Zymoseptoria tritici, single component; for inhibition at 0.1 ppm: 100-0 scale (100=no disease growth)", "excerpt": "as §1, §2, §3, §4, §5\n(§6) The following mixture compositions at the reported concentration (in ppm) in tables C2-3 to C2-5 gave the following disease control in this test Septoria tritici (leaf blotch). Fungicidal activity was evaluated on a 100-0 scale (100=no disease growth; 0=well completely covered by mycelium)."}, "[6]": {"system": "Glomerella lagenarium syn. Colletotrichum lagenarium", "assay": "Example C4: mixtures against Glomerella lagenarium syn. Colletotrichum lagenarium (anthracnose), liquid culture", "format": "cell-based", "conditions": "Colletotrichum orbiculare, single component", "excerpt": "as §1, §2, §3, §4, §5\nas §6, with “C4-3 and C4-4” for “C2-3 to C2-5”, “(Glomerella lagenarium syn. Colletotrichum lagenarium).” for “Septoria tritici (leaf blotch).”"}, "[7]": {"system": "Corynespora cassiicola", "assay": "Example C5: mixtures against Corynespora cassiicola (target leaf spot), liquid culture", "format": "cell-based", "conditions": "Corynespora cassiicola, single component", "excerpt": "as §1, §2, §3, §4\nas §5, with “it. The test plates were incubated at 24 C and the inhibition of growth was determined photometrically after 3-4 days at 620 nm.” for “it.”\nThe following mixture compositions at the reported concentration (in ppm) in tables C4-3 and C4-4 gave the following disease control in this test (Corynespora cassiicola). Fungicidal activity was evaluated on a 100-0 scale (100=no disease growth; 0=well completely covered by mycelium)."}}, "note": "Several values for one entry are separate records, joined by “and”; a condition that tells them apart may be missing. Equal entries are not always repeated. Where two headings read alike, the source gives them in different places."}
{"smiles": "CO/C=C(\\Oc1cc(C2CCCC2)ccc1C)C(=O)OC", "note": "[Compound X.02, methyl (Z)-2-(5-cyclopentyl-2-methyl-phenoxy)-3-methoxy-prop-2-enoate]", "values": [{"measurement": "inhibition at 2.25 g/ha", "setting": "[1]; Phakopsora pachyrhizi, foliar, applied alone, 2.25 g/ha, read-out: Observed Activity (% of untreated)", "value": 13, "unit": "%"}, {"measurement": "inhibition at 4.5 g/ha", "setting": "[1]; Phakopsora pachyrhizi, foliar, applied alone, 4.5 g/ha, read-out: Observed Activity (% of untreated)", "value": 20, "unit": "%"}, {"measurement": "inhibition at 1.13 g/ha", "setting": "[1]; Phakopsora pachyrhizi, foliar, single active ingredient, soybean, preventative, 100=no disease, read-out: Observed Activity (%)", "value": 1, "unit": "%"}, {"measurement": "inhibition at 2.25 g/ha", "setting": "[1]; Phakopsora pachyrhizi, foliar, single active ingredient, 2.25 g/ha, read-out: Observed Activity (%)", "value": 14, "unit": "%"}, {"measurement": "inhibition at 2.25 g/ha", "setting": "[1]; Phakopsora pachyrhizi, foliar, single active ingredient, 2.25 g/ha, soybean, preventative, 100=no disease, read-out: Observed Activity (%)", "value": 23, "unit": "%"}, {"measurement": "inhibition at 4.5 g/ha", "setting": "[1]; Phakopsora pachyrhizi, foliar, single active ingredient, 4.5 g/ha, read-out: Observed Activity (%)", "value": 22, "unit": "%"}, {"measurement": "inhibition at 4.5 g/ha", "setting": "[1]; Phakopsora pachyrhizi, foliar, single active ingredient, 4.5 g/ha, soybean, preventative, 100=no disease, read-out: Observed Activity (%)", "value": 33, "unit": "%"}, {"measurement": "inhibition at 9 g/ha", "setting": "[1]; Phakopsora pachyrhizi, foliar, single active ingredient, 9 g/ha, read-out: Observed Activity (%)", "value": 38, "unit": "%"}, {"measurement": "inhibition at 0.03 ppm", "setting": "[2]; 0.03 ppm", "value": 50, "unit": "%"}, {"measurement": "inhibition at 0.03125 ppm", "setting": "[2]; 0.03125 ppm", "value": 70, "unit": "%"}, {"measurement": "inhibition at 0.03 ppm", "setting": "[3]; 100-0 scale (100=no disease growth)", "value": 50, "unit": "%"}, {"measurement": "inhibition at 0.03125 ppm", "setting": "[3]; 0.03125 ppm", "value": 70, "unit": "%"}, {"measurement": "inhibition at 0.1 ppm", "setting": "[3]; 0.1 ppm, 100-0 scale (100=no disease growth), read-out: Activity (%)", "value": 70, "unit": "%"}, {"measurement": "control (%)", "setting": "[4]; 20 ppm", "value": 0, "unit": "%"}, {"measurement": "control (%)", "setting": "[4]; 60 ppm", "value": 0, "unit": "%"}, {"measurement": "control (%)", "setting": "[4]; 200 ppm", "value": 100, "unit": "%"}, {"measurement": "inhibition at 0.03 ppm", "setting": "[5]; 100-0 scale", "value": 0, "unit": "%"}, {"measurement": "inhibition at 0.03125 ppm", "setting": "[5]; 0.03125 ppm, 100-0 scale", "value": 20, "unit": "%"}, {"measurement": "inhibition at 0.0625 ppm", "setting": "[5]; 0.0625 ppm, 100-0 scale", "value": 90, "unit": "%"}, {"measurement": "inhibition at 0.1 ppm", "setting": "[5]", "value": 70, "unit": "%"}, {"measurement": "inhibition at 0.03 ppm", "setting": "[6]", "value": 0, "unit": "%"}, {"measurement": "inhibition at 0.1 ppm", "setting": "[6]; 0.1 ppm", "value": 20, "unit": "%"}, {"measurement": "inhibition at 1 ppm", "setting": "[7]; 1 ppm", "value": 20, "unit": "%"}]}
{"smiles": "CO/C=C(\\Oc1cc(C2CCCCC2)ccc1C)C(=O)OC", "note": "[Compound X.04, methyl (Z)-2-(5-cyclohexyl-2-methyl-phenoxy)-3-methoxy-prop-2-enoate]", "values": [{"measurement": "inhibition at 1.13 g/ha", "setting": "[1]; Phakopsora pachyrhizi, foliar, applied alone, read-out: Observed Activity (% of untreated)", "value": 20, "unit": "%"}, {"measurement": "inhibition at 18 g/ha", "setting": "[1]; Phakopsora pachyrhizi, foliar, applied alone, 18 g/ha, read-out: Observed Activity (% of untreated)", "value": 74, "unit": "%"}, {"measurement": "Observed Activity (% of untreated)", "setting": "[1]; applied alone, 2.25 g/ha", "value": "22% and 35% and 17%"}, {"measurement": "Observed Activity (% of untreated)", "setting": "[1]; applied alone, 4.5 g/ha", "value": "67% and 34% and 49% and 53%"}, {"measurement": "Observed Activity (% of untreated)", "setting": "[1]; applied alone, 9 g/ha", "value": "81% and 59%"}, {"measurement": "inhibition at 0.00625 ppm", "setting": "[2]; 0.00625 ppm", "value": 0, "unit": "%"}, {"measurement": "inhibition at 0.00625 ppm", "setting": "[3]; 0.00625 ppm", "value": 0, "unit": "%"}, {"measurement": "inhibition at 0.025 ppm", "setting": "[3]; 0.025 ppm", "value": 90, "unit": "%"}, {"measurement": "inhibition at 0.03 ppm", "setting": "[3]", "value": 70, "unit": "%"}, {"measurement": "control (%)", "setting": "[4]; 20 ppm", "value": 90, "unit": "%"}, {"measurement": "control (%)", "setting": "[4]; 60 ppm", "value": 100, "unit": "%"}, {"measurement": "control (%)", "setting": "[4]; 200 ppm", "value": 100, "unit": "%"}, {"measurement": "inhibition at 0.00625 ppm", "setting": "[5]; 0.00625 ppm, 100-0 scale", "value": 0, "unit": "%"}, {"measurement": "inhibition at 0.025 ppm", "setting": "[5]; 0.025 ppm, 100-0 scale", "value": 70, "unit": "%"}, {"measurement": "inhibition at 0.03 ppm", "setting": "[5]; 100-0 scale", "value": 50, "unit": "%"}, {"measurement": "inhibition at 0.1 ppm", "setting": "[5]", "value": 70, "unit": "%"}, {"measurement": "inhibition at 0.03 ppm", "setting": "[6]", "value": 0, "unit": "%"}, {"measurement": "inhibition at 0.2 ppm", "setting": "[7]; 0.2 ppm", "value": 20, "unit": "%"}]}
